Experimental data published in patent US10364360B2, “Surface coating material, coating film, and hydrophilic oil repellent member” (MITSUBISHI MATERIALS CORPORATION, priority 2014, dated 2019).

Test: Solubility of the compound in water
Format: physicochemical
Settings: room temperature (25° C.)
Method: 23.5 g of perfluoro(3-dibutylaminopropionic acid) was neutralized with 1.5 g of calcium hydroxide in a methanol/water mixed solution. The precipitated crystals were separated by filtration, and dried at 100° C., whereby 23.5 g of perfluoro(3-dibutylaminopropionic acid) calcium represented by the following Formula (378) was obtained (yield of 97%). The solubility of the present compound in water at room temperature (25° C.) was 2 [g/100 g-H2O].

O=C(O)C(F)(F)C(F)(F)N(C(F)(F)C(F)(F)C(F)(F)C(F)(F)F)C(F)(F)C(F)(F)C(F)(F)C(F)(F)F.[Ca] [Synthesis Example 3, perfluoro(3-dibutylaminopropionic acid) calcium]
solubility of the present compound in water: 2 g/100 g-H2O
